Experimental data from PubChem BioAssay (NCI).
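Briefly, cells in 96-well plates were exposed to five compound concentrations for 48 h, and endpoints were estimated by linear interpolation. The concentration for full growth arrest is given as TGI.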

Key:
Test in all cases: NCI-60 cell line screen, 48 h
[1] = system: KM20L2 colon
[2] = system: HOP-92 NSCLC
[3] = system: NCI-H522 lung
[4] = system: SK-OV-3 ovarian
[5] = system: UACC-62 melanoma
[6] = system: RXF 393 renal
[7] = system: RPMI-8226 leukemia
[8] = system: NCI-H226 lung
[9] = system: NCI-H23 lung
[10] = system: XF 498 CNS
[11] = system: SK-MEL-2 melanoma
[12] = system: HCT-116 colon
[13] = system: SK-MEL-28 melanoma
[14] = system: CCRF-CEM leukemia
[15] = system: OVCAR-5 ovarian
[16] = system: U251 CNS
[17] = system: MOLT-4 leukemia
[18] = system: DMS 114 small cell lung
[19] = system: A549 NSCLC
[20] = system: NCI-H460 lung
[21] = system: M14 melanoma
[22] = system: OVCAR-8 ovarian
[23] = system: UO-31 renal
[24] = system: M19-MEL melanoma
[25] = system: HOP-62 NSCLC
[26] = system: SNB-78 CNS
[27] = system: COLO 205 colon
[28] = system: HT29 colon
[29] = system: SR leukemia
[30] = system: K-562 leukemia
[31] = system: LXFL 529 NSCLC
[32] = system: SNB-19 CNS
[33] = system: UACC-257 melanoma
[34] = system: A498 renal
[35] = system: SF-539 CNS
[36] = system: TK-10 renal
[37] = system: SNB-75 CNS
[38] = system: HOP-18 NSCLC
[39] = system: KM12 colon
[40] = system: DMS 273 small cell lung
[41] = system: HCT-15 colon
[42] = system: MALME-3M melanoma
[43] = system: SF-295 CNS
[44] = system: EKVX NSCLC
[45] = system: SK-MEL-5 melanoma
[46] = system: CAKI-1 renal
[47] = system: 786-0 renal
[48] = system: ACHN renal
[49] = system: IGROV1 ovarian
[50] = system: DLD-1 colon
[51] = system: OVCAR-4 ovarian
[52] = system: SN12C renal
[53] = system: SF-268 CNS
[54] = system: SW-620 colon
[55] = system: LOX IMVI melanoma
[56] = system: HCC-2998 colon
[57] = system: OVCAR-3 ovarian
[58] = system: HL-60(TB) leukemia

Measured: TGI

COc1ccc([C@H]2CC(=O)NCCCCN2)cc1
not listed: [54] | [55] | [56] | [57] | [58]
> 100 µM: all other assays above

CCCCN1C(=O)NC(Cc2ccccc2)C1=O (configuration not stated)
not listed: [2] | [4] | [5] | [7] | [12] | [14] | [17] | [27] | [30] | [34] | [41] | [45] | [47] | [49] | [51] | [57] | [58]
> 100 µM: all other assays above

NC(=S)N/N=C1/C(=O)N(c2ccc(Cl)cc2Cl)C(=O)C(=O)C1c1nc2ccccc2s1 (configuration not stated)
not listed: [14] | [19] | [29] | [34] | [50] | [58]
> 100 µM: all other assays above

O=c1cnn2c(n1)sc1ccc3ccccc3c12
not listed: [3] | [34]
> 100 µM: all other assays above
